Assay [1] relates to HL-60. Description: Inhibitory activity against MRP1/GS-X pump mediated transport of delta7-PGA1 methyl ester glutathione conjugate in the cisplatin-resistant human leukemia HL-60 (HL-60/R-CP) cells. Format: functional, cell-based.
Assay [2] deals with HL-60. Description: Compound was evaluated for the competitive inhibition of the MRP1/GS-X pump mediated transport of LTC4 in the cisplatin-resistant human leukemia HL-60 (HL-60/R-CP) cells. The class given is functional, cell-based.

Take `N[C@@H](CCC(=O)N[C@@H](CSCCCCCc1ccc(C(=O)c2ccccc2)cc1)C(=O)NCC(=O)O)C(=O)O`: the IC50 in the assay on HL-60 [1] stood at 0.52 µM; with HL-60 [2], 0.4 µM.

The term IC50 denotes the point on the concentration scale where inhibition reaches its midpoint. Low readings indicate inhibition by little substance, high ones a need for much substance.
